Laboratory results published in patent publication US20060063828A1 (priority 2004, published 2006).

Legend:
VCAM-1 = test: In Vitro VCAM-1 Assay (ELISA of VCAM-1 on TNF-α stimulated endothelial cells); format: cell-based; conditions: Endothelial cell; primary human aortic (HAEC) or pulmonary (HPAEC) endothelial cells, TNF-α (1 ng/ml), approximately 16 hours
Protocol: Cell Culture and compound dosing: Cultured primary human aortic (HAEC) or pulmonary (HPAEC) endothelial cells were obtained from Clonetics, Inc., and were used below passage 9. Cells were seeded in 96 well plates such that they would reach 90-95% confluency by the following day. On the following day the cells were stimulated with TNF-α (1 ng/ml) in the presence or absence of compounds dissolved in DMSO such that the final concentration of DMSO is 0.25% or less. To establish a dose curve for each compound, four concentrations in 2- to 5-fold increments were used. Cells were exposed to TNF-α and compounds for approximately 16 hours. The next day the cells were examined under microscope to score for visual signs of toxicity or cell stress.
Following 16 hr exposure to TNF-α and compound the media was discarded and the cells were washed once with Hanks Balanced Salt Solution (HBSS)/Phosphate buffered saline (PBS) (1:1). Primary antibodies against VCAM-1 (0.25 μg/ml in HBSS/PBS+5% FBS) were added and incubated for 30-60 minutes at 37° C. Cells were washed with HBSS/PBS three times, and secondary antibody Horse Radish Peroxidase (HRP)-conjugated goat anti-mouse IgG (1:500 in HBSS/PBS+5% FBS) were added and incubated for 30 minutes at 37° C. Cells were washed with HBSS/PBS four time and TMB substrate were added and incubated at room temperature in the dark until there was adequate development of blue color. The length of time of incubation was typically 5-15 minutes. 2N sulfuric acid was added to stop the color development and the data was collected by reading the absorbance on a BioRad ELISA plate reader at OD 450 nm. The results are expressed as IC50 values (the concentration (micromolar) of compound required to inhibit 50% of the maximal response of the control sample stimulated by TNF-α only).

Balb/C mice = test: Asthma Protocol (ovalbumin sensitized and challenged mice, bronchoaveolar lavage cell counts); format: in vivo; conditions: ovalbumin sensitized and aerosol challenged, lavage fluid cell counts
Protocol: Balb/C mice (6-8 weeks old) are sensitized to ovalbumin (ova) (8 ug ova absorbed in 3.3 mg Alum inject) on days 0 and 5. On day 12, the mice were aerosol challenged with 0.5% ovalbumin dissolved in sterile saline for 1 h in the AM, and then again in the PM (at least 4 h apart). On day 14, the mice were anesthetized with ketamine/xylazine/acepromazine cocktail, exsanguinated, and then euthanized. Following blood collection, bronchoaveolar lavage was performed on each animal. Total cell counts were conducted on the lavage fluid. The lavage fluid was processed and slides were made by spinning the samples with a cytospin centrifuge. Slides were airdried and stained using Diff-Quik® stain. Cell differentials of the lavage fluid were completed at the conclusion of the study. Statistical analysis involved ANOVA and Tukey-Kramer post hoc tests. Compounds were administered by subcutaneous injection twice daily from day 11-13. The formulations used contained various mixtures of the following excipients (pharmasolve, cremophor RH 40, tween 80, PEG 300). See Biological Table 3

Row | Structure (SMILES) | melting point | IC50 (VCAM-1) | % Inhibition 6 mg/kg sq, bid, d11-13 (Balb/C mice)
1 | C=C(C(=O)c1c(C)cccc1C)c1ccc(C(=O)O)cc1-c1cccs1 [Example 33, 4-[1-(2,6-Dimethyl-benzoyl)-vinyl]-3-thien-2-yl-benzoic acid] | 186.5 to 188 °C | < 3 µM | –
2 | C=C(C(=O)c1c(OC)ccc(-c2cccs2)c1OC)c1cc(C(C)(C)C)c(O)c(C(C)(C)C)c1 [Example 34, 2-(3,5-Di-tert-butyl-4-hydroxy-phenyl)-1-(2,6-dimethoxy-3-thien-2-yl-phenyl)-propenone] | 130 to 132.5 °C | > 10 µM | –
3 | C=C(C(=O)c1c(OC)ccc(-c2cccs2)c1OC)c1ccc(OC(C)(C)C(=O)O)cc1 [Example 35, 2-{4-[1-(2,6-Dimethoxy-3-thien-2-yl-benzoyl)-vinyl]-phenoxy}-2-methyl-propionic acid] | 138 °C (dec.) | < 3 µM | –
4 | C=C(C(=O)c1c(OC)cccc1OC)c1ccc(C(=O)O)cc1-c1cccs1 [Example 36, 4-[1-(2,6-Dimethoxy-benzoyl)-vinyl]-3-thien-2-yl-benzoic acid] | 192 to 195 °C | < 3 µM | –
5 | C=C(C(=O)c1c(OC)cccc1OC)c1ccc(OC(C)(C)C(=O)O)c(-c2cccs2)c1 [Example 37, 2-{4-[1-(2,6-Dimethoxy-benzoyl)-vinyl]-2-thien-2-yl-phenoxy}-2-methyl-propionic acid] | 56.5 °C (dec.) | < 6 µM | 27%
6 | C=C(C(=O)c1c(OC)ccc(-c2cccs2)c1OC)c1ccc(C(F)(F)F)cc1 [Example 40, 1-(2,6-Dimethoxy-3-thien-2-yl-phenyl)-2-(4-trifluoromethyl-phenyl)-propenone] | 102 to 105 °C | < 1 µM | –
7 | C=C(C(=O)c1c(OC)ccc(-c2cccs2)c1OC)c1ccc([N+](=O)[O-])cc1 [Example 41, 1-(2,6-Dimethoxy-3-thien-2-yl-phenyl)-2-(4-nitrophenyl)-propenone] | 114 to 118 °C | < 1 µM | –
8 | C=C(C(=O)c1c(OC)ccc(-c2cccs2)c1OC)c1c(Cl)cccc1Cl [Example 42, 2-(2,6-Dichloro-phenyl)-1-(2,6-dimethoxy-3-thien-2-yl-phenyl)-propenone] | 152 to 154 °C | < 1 µM | –
9 | C=C(C(=O)c1c(OC)cccc1OC)c1ccccc1-c1cccs1 [Example 43, 1-(2,6-Dimethoxy-phenyl)-2-(2-thien-2-yl-phenyl)-propenone] | 70 to 73 °C | < 3 µM | –
10 | C=C(C(=O)c1c(OC)ccc(-c2cccs2)c1OC)c1cccc(OC(C)(C)C(=O)O)c1 [Example 44, 2-{3-[1-(2,6-Dimethoxy-3-thien-2-yl-benzoyl)-vinyl]-phenoxy}-2-methyl-propionic acid] | 79 to 94 °C | < 3 µM | –
11 | C=C(C(=O)c1c(OC)ccc(-c2cc3ccccc3s2)c1OC)c1cccc(OC(C)(C)C(=O)O)c1 [Example 45, 2-{3-[1-(3-Benzo[b]thien-2-yl-2,6-dimethoxy-benzoyl)-vinyl]-phenoxy}-2-methyl-propionic acid] | 135 to 137 °C | < 1 µM | –
12 | C=C(C(=O)c1cc(-c2cc3ccccc3s2)c(OC)cc1OC)c1ccc(OC)cc1 [Example 46, 1-(5-Benzo[b]thien-2-yl-2,4-dimethoxy-phenyl)-2-(4-methoxy-phenyl)-propenone] | 166 to 168 °C | < 3 µM | –
13 | C=C(C(=O)c1cc(-c2cc3ccccc3s2)c(OC)cc1OC)c1ccc(F)cc1 [Example 47, 1-(5-Benzo[b]thien-2-yl-2,4-dimethoxy-phenyl)-2-(4-fluoro-phenyl)-propenone] | 150 to 152 °C | < 3 µM | –
14 | C=C(C(=O)c1ccc(C(=O)OC)cc1)c1cc(OC)c(OC)c(-c2cccs2)c1 [Example 48, 4-[2-(3,4-Dimethoxy-5-thien-2-yl-phenyl)-acryloyl]-benzoic acid methyl ester] | 102 to 103 °C | < 10 µM | –
15 | C=C(C(=O)c1ccc(C(=O)O)cc1)c1cc(OC)c(OC)c(-c2cccs2)c1 [Example 49, 4-[2-(3,4-Dimethoxy-5-thien-2-yl-phenyl)-acryloyl]-benzoic acid] | 156 to 157 °C | < 6 µM | –
16 | C=C(C(=O)c1ccc(C(=O)NCCN2CCOCC2)cc1)c1cc(OC)c(OC)c(-c2cccs2)c1 [Example 50, 4-[2-(3,4-Dimethoxy-5-thien-2-yl-phenyl)-acryloyl]-N-(2-morpholin-4-yl-ethyl)-benzamide] | 84 to 87 °C | < 3 µM | –
17 | C=C(C(=O)c1ccc(F)cc1)c1cc(-c2cc3ccccc3s2)c(OC)cc1OC [Example 51, 2-(5-Benzo[b]thien-2-yl-2,4-dimethoxy-phenyl)-1-(4-fluoro-phenyl)-propenone] | 142 to 144 °C | < 3 µM | –
18 | C=C(C(=O)c1cc(-c2cccs2)ccc1OC)c1ccc(C#N)cc1 [Example 53, 4-[1-(2-Methoxy-5-thien-2-yl-benzoyl)-vinyl]-benzonitrile] | 86 to 88 °C | < 3 µM | –
19 | C=C(C(=O)c1ccc(C(=O)O)cc1)c1cc(-c2cccs2)c(OC)cc1OC [Example 55, 4-[2-(2,4-Dimethoxy-5-thien-2-yl-phenyl)-acryloyl]-benzoic acid] | 196 to 198 °C | < 3 µM | –

Continued, in another order:

Row | melting point | IC50 (VCAM-1) | Structure (SMILES) | % Inhibition 6 mg/kg sq, bid, d11-13 (Balb/C mice)
20 | 186 to 188 °C | < 3 µM | C=C(C(=O)c1cccc(C(=O)O)c1)c1cc(-c2cccs2)ccc1OC [Example 56, 3-[2-(2-Methoxy-5-thien-2-yl-phenyl)-acryloyl]-benzoic acid] | –
21 | 130 to 132 °C | < 3 µM | C=C(C(=O)c1ccc(C(C)(C)C)cc1)c1cc(-c2cccs2)ccc1OC [Example 57, 1-(4-tert-Butyl-phenyl)-2-(2-methoxy-5-thien-2-yl-phenyl)-propenone] | –
22 | 131 to 133 °C | < 3 µM | C=C(C(=O)c1ccc(C(F)(F)F)cc1)c1cc(-c2cccs2)ccc1OC [Example 58, 2-(2-Methoxy-5-thien-2-yl-phenyl)-1-(4-trifluoromethyl-phenyl)-propenone] | –
23 | 206 to 207 °C | > 10 µM | C=C(C(=O)c1ccc(C(=O)O)cc1)c1cc(-c2cccs2)ccc1OCC(=O)N1CCOCC1 [Example 60] | –
24 | 192 to 194 °C | < 1 µM | C=C(C(=O)c1ccc(C(=O)O)cc1)c1cc(-c2ccsc2)ccc1OC [Example 62, 4-[2-(2-Methoxy-5-thien-3-yl-phenyl)-acryloyl]-benzoic acid] | –
25 | 164 to 166 °C | < 10 µM | C=C(C(=O)c1c(OC)ccc(-c2cccs2)c1OC)c1ccc(S(=O)(=O)N(C)CC(=O)O)cc1 [Example 63, ({4-[1-(2,6-Dimethoxy-3-thien-2-yl-benzoyl)-vinyl]-benzenesulfonyl}-methyl-amino)-acetic acid] | –
26 | 76 to 78 °C | > 10 µM | C=C(C(=O)c1c(OC)ccc(-c2cccs2)c1OC)c1c(F)cccc1C(F)(F)F [Example 64, 1-(2,6-Dimethoxy-3-thien-2-yl-phenyl)-2-(2-fluoro-6-trifluoromethyl-phenyl)-propenone] | –
27 | 162 to 163 °C | < 1 µM | C=C(C(=O)c1c(OC)cccc1OC)c1cc(-c2cccs2)ccc1OC [Example 65, 1-(2,6-Dimethoxy-phenyl)-2-(2-methoxy-5-thien-2-yl-phenyl)-propenone] | –
28 | 72 to 84 °C | < 3 µM | C=C(C(=O)c1c(OC)cccc1OC)c1cc(-c2cccs2)ccc1OC(C)(C)C(=O)O [Example 66, 2-{2-[1-(2,6-Dimethoxy-benzoyl)-vinyl]-4-thien-2-yl-phenoxy}-2-methyl-propionic acid] | –
